Tested on: U-698-M
Settings: B-Cell Non-Hodgkin's Lymphoma
Outline: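 Plates with 1536 wells received cancer cell lines in 7.5 μl of DMEM/F12 or RPMI containing 10% FBS. After 24 hours at 37°C and 5% CO2, cells were dosed for 72 hours with final DMSO typically 0.2%, and viability was read by CellTiter-Glo 2.0 luminescence scaled between blank-well and DMSO-well means. The single-agent IC50 was taken from a logistic fit of the dose responses made with a non-linear mixed effects model, that logistic curve having two parameters.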

SMILES | IC50, cell viability 72 h (max 10 µM) | other results
Cc1c2c(nn1C)CSCc1cc(n(C)n1)CSc1cc(c3ccccc3c1)OCCCc1c(C(=O)O)n(C)c3c-2c(Cl)ccc13 [AZD5991] |  | IC50, cell viability 72 h (max 1 µM): 69.2 nM
C[C@@H]1COCCN1c1cc(C2([S@](C)(=N)=O)CC2)nc(-c2ccnc3[nH]ccc23)n1 [AZD6738] | 2210 nM | 
Cc1cc2ncnn2cc1Nc1ncc2c(n1)n(C1CCOCC1)c(=O)n2C [AZD7648] | > 10000 nM | 
C[C@@H](Nc1cc(F)cc(F)c1)c1cc(C(=O)N(C)C)cc2c(=O)cc(N3CCOCC3)oc12 [AZD8186] | > 10000 nM | 
COc1cc(Nc2ncc3c(n2)-c2ccc(Cl)cc2C(c2c(F)cccc2OC)=NC3)ccc1C(=O)O [Alisertib] | 8030 nM | 
N.N.O=C([O-])C1(C(=O)[O-])CCC1.[Pt+2] [Carboplatin] | > 10000 nM | 
C[C@@H](Oc1cc(-c2cnn(C3CCNCC3)c2)cnc1N)c1c(Cl)ccc(F)c1Cl [Crizotinib] | 5060 nM | 
Cc1nc(Nc2ncc(C(=O)Nc3c(C)cccc3Cl)s2)cc(N2CCN(CCO)CC2)n1 [Dasatinib] |  | IC50, cell viability 72 h (max 2 µM): > 2000 nM
COc1cccc2c1C(=O)c1c(O)c3c(c(O)c1C2=O)C[C@@](O)(C(=O)CO)C[C@@H]3O[C@H]1C[C@H](N)[C@H](O)[C@H](C)O1 [Doxorubicin] |  | IC50, cell viability 72 h (max 1 µM): 495 nM
COc1cc([C@@H]2c3cc4c(cc3[C@@H](O[C@@H]3O[C@@H]5CO[C@@H](C)O[C@H]5[C@H](O)[C@H]3O)[C@H]3COC(=O)[C@H]23)OCO4)cc(OC)c1O [Etoposide] | 4930 nM | 
COc1cc2ncnc(Nc3ccc(F)c(Cl)c3)c2cc1OCCCN1CCOCC1 [Gefitinib] | > 10000 nM | 
Nc1ccn([C@@H]2O[C@H](CO)[C@@H](O)C2(F)F)c(=O)n1 [Gemcitabine] |  | IC50, cell viability 72 h (max 0.3 µM): 130 nM
CS(=O)(=O)CCNCc1ccc(-c2ccc3ncnc(Nc4ccc(OCc5cccc(F)c5)c(Cl)c4)c3c2)o1 [Lapatinib] | > 10000 nM | 
NC1(c2ccc(-c3nc4ccn5c(=O)[nH]nc5c4cc3-c3ccccc3)cc2)CCC1 [MK-2206] | > 10000 nM | 
O=C(c1cc(Cc2n[nH]c(=O)c3ccccc23)ccc1F)N1CCN(C(=O)C2CC2)CC1 [Olaparib] | > 10000 nM | 
CC(=O)O[C@H]1C(=O)[C@@]2(C)[C@H]([C@H](OC(=O)c3ccccc3)[C@]3(O)C[C@H](OC(=O)[C@H](O)[C@@H](NC(=O)c4ccccc4)c4ccccc4)C(C)=C1C3(C)C)[C@]1(OC(C)=O)CO[C@@H]1C[C@@H]2O [Paclitaxel] |  | IC50, cell viability 72 h (max 3 µM): 5.9 nM
CC(=O)c1c(C)c2cnc(Nc3ccc(N4CCNCC4)cn3)nc2n(C2CCCC2)c1=O [Palbociclib] | > 10000 nM | 
COc1cccc(OCCCN)c1-c1cc(Nc2cnc(C#N)cn2)n[nH]1 [Prexasertib] |  | IC50, cell viability 72 h (max 1 µM): 11.1 nM
COc1cc2c(cc1OCCCCCOc1cc3c(cc1OC)C(=O)N1C=C(C)C[C@H]1C=N3)N=C[C@@H]1CC(C)=CN1C2=O [SG3199] |  | IC50, cell viability 72 h (max 0.001 µM): > 1 nM
CCc1c2c(nc3ccc(O)cc13)-c1cc3c(c(=O)n1C2)COC(=O)[C@]3(O)CC [SN-38] |  | IC50, cell viability 72 h (max 0.3 µM): 22 nM
N#Cc1cnc(Nc2cc(NC[C@H]3CNCCO3)c(C(F)(F)F)cn2)cn1 [SRA737] | 2860 nM | 
C[C@@H](c1ccc2nccn2c1)n1nnc2ncc(-c3cnn(C)c3)nc21 [Savolitinib] |  | IC50, cell viability 72 h (max 1 µM): > 1000 nM
Cn1cnc2c(F)c(Nc3ccc(Br)cc3Cl)c(C(=O)NOCCO)cc21 [Selumetinib] | > 10000 nM | 
Cc1nc(-c2cn3c(n2)-c2ccc(-c4cnn(C(C)(C)C(N)=O)c4)cc2OCC3)n(C(C)C)n1 [Taselisib] | 5680 nM | 
CC(=O)Nc1cccc(-n2c(=O)n(C3CC3)c(=O)c3c(Nc4ccc(I)cc4F)n(C)c(=O)c(C)c32)c1 [Trametinib] |  | IC50, cell viability 72 h (max 1 µM): > 1000 nM
CC1(C)CCC(CN2CCN(c3ccc(C(=O)NS(=O)(=O)c4ccc(NCC5CCOCC5)c([N+](=O)[O-])c4)c(Oc4cnc5[nH]ccc5c4)c3)CC2)=C(c2ccc(Cl)cc2)C1 [Venetoclax] |  | IC50, cell viability 72 h (max 1 µM): > 1000 nM
